Patent US6878522B2, “Methods for the identification of compounds useful for the treatment of disease states mediated by prostaglandin D2” (priority 2000, dated 2005)
“Also recorded” adds a separate entry of the source.

How the values were obtained:
[1] = test system: human activated T-lymphocytes; test: Chemotaxis of human T lymphocytes (Boyden chamber); format: cell-based; settings: anti-CD3 or anti-CD3 and anti-CD28 stimulated T cells
Description: The chemotactic response of human T lymphocytes to PGD2, murine MDC and murine mSDF was also assayed. Chemotaxis was determined using a 48-well Boyden chamber (Neuroprobe, Cabin John, Md.), and 3.0 μm polycarbonate filters. Cells were resuspended (3-3.5×10^6 cells/ml) in RPMI 1640 supplemented with 10 mM HEPES and 1 mg/ml bovine serum albumin (Sigma, St. Louis, Mo.), and placed into the upper wells of the chamber. The compound to be tested was placed in the lower wells. The chambers were incubated for 90-120 minutes at 37° C. in a humidified CO2 incubator. At the end of the incubation period, the number of migrating cells on the filter (expressed per high power field) were enumerated microscopically. […] In FIG. 4, the chemotactic response of human basophils to PGD2 and C5a is shown.

[2] = biological target: T1, CRTH2 (Homo sapiens, UniProt Q9Y5Y4); test: [Ca2+]i mobilization assay in 300-19 cells expressing CRTH2; format: cell-based; settings: CRTH2 stable cell line (300-19 transfectants)
T1 construct: prolactin (prolac) signal peptide (N); expressed in transfected cells; host or cells: 300-19 cells (transformed murine pre-B lymphocytes)
T1 sequence (Q9Y5Y4 1-395): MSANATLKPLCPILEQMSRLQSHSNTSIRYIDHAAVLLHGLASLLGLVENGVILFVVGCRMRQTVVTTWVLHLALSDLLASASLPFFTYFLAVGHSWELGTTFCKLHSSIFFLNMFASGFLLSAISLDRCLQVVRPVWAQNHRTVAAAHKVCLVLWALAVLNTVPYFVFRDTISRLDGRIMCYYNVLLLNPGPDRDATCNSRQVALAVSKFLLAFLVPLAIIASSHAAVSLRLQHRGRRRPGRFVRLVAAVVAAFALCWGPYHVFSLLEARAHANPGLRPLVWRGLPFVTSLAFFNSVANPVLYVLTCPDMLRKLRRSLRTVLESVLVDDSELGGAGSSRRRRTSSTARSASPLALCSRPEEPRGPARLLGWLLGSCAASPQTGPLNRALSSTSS
Description: The ratio of fluorescence produced by the calcium-bound dye to that produce by the unbound dye is used to estimate the intracellular calcium concentration. In one embodiment, for example, the following method can be used. Cells that express CRTH2 are collected, and resuspended in fresh media at ˜2×10^5/ml the day before performing the calcium flux assay. Cells are incubated at 37° C. for not longer than 20-30 minutes, and then spun down and resuspended in 50 ml fresh PTI buffer (Hank's Buffer, pH 7.2-7.4; 10 mM Hepes; 1.6 mM CaCl2) containing Indo-1 AM, pre-warmed to 37° C., at a concentration of 10 million per ml. Cells are excited, and fluorescence is measured using a fluorimeter (Photon Technology Corporation, International). After the readout has stabilized, the time axis is reset, and PGD2 is added at a specific time point (e.g., 20 seconds). After response, the following reagents are added to the cuvette, to release and chelate total calcium, in the following order: 20 μl of 18% Triton X-100, 20 μl of 3M Tris, pH 8.5, and 20 μl of 0.5 M EGTA, pH 8.5. The experiment is repeated in the presence and the absence of a test compound.
Using 300-19 cells (transformed pre-B lymphocytes) expressing CRTH2, a number of mast cell and non-mast cell-derived mediators were screened in a [Ca^2+]i mobilization assay. […]

[3] = biological target: T1, CRTH2; test: [3H]-PGD2 binding to 300-19 cells transfected with CRTH2
Description: In a preferred embodiment, a binding assay can be performed as follows: • (a) 300-19 cells (see below) that transiently express CRTH2 are pelleted, and washed twice at room temperature with assay buffer (Hank's balanced saline, including Ca^+2 and Mg^+2, and supplemented with HEPES and sodium bicarbonate). The cells are resuspended at a concentration of 2×10^7 cells/ml. […] After the addition of 50 μl scintillation fluid, the plate is counted in a scintillation counter (1 min per well). […]
To directly determine the binding affinity of CRTH2 for PGD2, the following binding assay was used. […] After the addition of 50 μl scintillation fluid (Packard Microscint 0), the plate was counted in a Packard Topcount scintillation counter (1 min per well). […]
The receptor concentration was calculated to be 79,554 sites/cell.

[4] = biological target: T1, CRTH2; test: Competition with 3H-PGD2 binding at the CRTH2 receptor (Examples 6-9); settings: control, cold PGD2, 8 trials
Description: To directly determine the binding affinity of CRTH2 for PGD2, the following binding assay was used. Transfected and parental 300-19 cells were washed twice at room temperature with assay buffer, and resuspended at a concentration of 2×10^7 cells/ml. Using a 96-well U-bottom polypropylene plate (Costar, Corning Inc., Acton, Mass.), the assay was set up as follows: 50 μl of vehicle (0.3% DMSO in assay buffer, total wells) or of […] cold PGD2 (NS wells); 50 μl cells (2×10^7 cells/ml for 10^6 cells per well); 50 μl 6 nM [3H]-PGD2. The plate was allowed to incubate for 20 min at RT before centrifugation (2800 rpm, Sorval RT6000, 5 min, 4° C.). The plate was harvested (Packard Unifilter plate GF/C, previously soaked in 3% PEI for at least 1 hr) with cold assay buffer using a Packard Filtermate Cell Harvester (6×150 μl buffer wash per well). The filterplate was dried overnight. After the addition of 50 μl scintillation fluid (Packard Microscint 0), the plate was counted in a Packard Topcount scintillation counter (1 min per well). […] The solutions of labeled PGD2 and unlabeled “cold” PGD2 were prepared as follows: 10 μl of [^3H]-PGD2 (Amersham lot # TRK734 162 Ci/mmol, 0.1 Ci/ml in methanol: water: acetonitrile (3:2:1), 617 nM) per ml assay buffer was used to prepare a solution of [^3H]-PGD2 at a concentration of 6 nM (50 μl/well for final conc. of 2 nM); cold PGD2 (Biomol #PG-005, lot # P4653) was dissolved in DMSO for a stock of 10 mM (stored at −20° C.). The 10 mM stock was diluted 3:1000 to obtain a final concentration of […] (50 μl/well for final conc. of […]). Assay buffer: Hank's balanced saline supplemented with HEPES and sodium bicarbonate: 100 ml/L of 10× Hank's Balanced saline (with Ca^+2, Mg^+2); 10 ml/L of 1M HEPES; 4.7 ml/L of 7.5% Sodium Bicarbonate.
In the assay, the capacity of each D-ring compound to compete with binding of ^3H-PGD2 was measured at both the CRTH2 and DP receptors, and an IC50 value (in μM) was determined. […] The binding assay procedure of Example 1 was used. Preferably, the ratio of IC50 at CRTH2 to IC50 at DP is less than about twenty, and more preferably is […].

**Q.** What does the source list for `CCCCC[C@H](O)/C=C/[C@H]1C(=O)C[C@H](O)[C@@H]1C/C=C\CCCC(=O)O` [PGD2, prostaglandin D2]?
**A.** chemotactic response of human T lymphocytes [1]: respond specifically to PGD2; also recorded: responsive to PGD2; EC50 [2]: 15 nM; IC50 ([3]; 300-19 CRTH2 transfectants, 2 nM [3H]-PGD2, room temperature): 18 nM; Kd ([3]; CRTH2 transfectant, read-out: Kd of [3H]-PGD2 binding (Scatchard plot)): 18.1 nM; IC50 [4]: 10.7 nM
